Values belong to the molecule of their own block, whether it stands above or below them. Calls of active or inactive are those of the source. No cut-off for these calls is given here.
Assays:
PC-3 [1] = test: Cytotoxicity against human PC3 cells assessed as reduction in cell viability measured after 72 hrs by MTT assay; format: functional, cell-based; details: PC-3, 72 h
CHO-K1 [2] = test: Cytotoxicity against […] cells assessed as reduction in cell viability measured after 72 hrs by MTT assay; format: cell-based; details: Cricetulus griseus, CHO-K1, 72 h
B16-F10 = test: Cytotoxicity against mouse B16-F10 cells assessed as reduction in cell viability measured after 72 hrs by MTT assay; format: functional, cell-based; details: B16-F10, 72 h
PC-3 [3] = test: Induction of apoptosis in human PC-3 cells assessed as viable cells at 91 uM after 48 hrs by Annexin V based flow cytometric analysis (reference value: 89.57%); format: functional; details: read-out: Activity
CHO-K1 [4] = test: Induction of apoptosis in CHO-K1 cells assessed as necrotic cells at 63 uM after 48 hrs by Annexin V based flow cytometric analysis (reference value: 0.70%); format: cell-based, Cricetulus griseus; details: chinese hamster, cho-k1, 48 h
CHO-K1 [5] = test: Induction of apoptosis in CHO-K1 cells assessed as early apoptic cells at 60 uM after 48 hrs by Annexin V based flow cytometric analysis (reference value: 4.58%); format: cell-based, Cricetulus griseus; details: chinese hamster, cho-k1, 48 h
CHO-K1 [6] = test: Induction of apoptosis in CHO-K1 cells assessed as early apoptic cells at 63 uM after 48 hrs by Annexin V based flow cytometric analysis (reference value: 4.58%); format: cell-based, Cricetulus griseus; details: chinese hamster, cho-k1, 48 h
PC-3 [7] = test: Induction of apoptosis in human PC-3 cells assessed as necrotic cells at 91 uM after 48 hrs by Annexin V based flow cytometric analysis (reference value: 0.79%); format: functional
PC-3 [8] = test: Induction of apoptosis in human PC-3 cells assessed as late apoptic cells at 98 uM after 48 hrs by Annexin V based flow cytometric analysis (reference value: 9.24%); format: functional
CHO-K1 [9] = test: Induction of apoptosis in CHO-K1 cells assessed as necrotic cells at 60 uM after 48 hrs by Annexin V based flow cytometric analysis (reference value: 0.70%); format: cell-based, Cricetulus griseus; details: chinese hamster, cho-k1, 48 h
PC-3 [10] = test: Induction of apoptosis in human PC-3 cells assessed as apoptotic cells at 98 uM incubated for 48 hrs by AnnexinV based flow cytometric analysis (reference value: 10.43%); format: functional
PC-3 [11] = test: Induction of apoptosis in human PC-3 cells assessed as early apoptic cells at 98 uM after 48 hrs by Annexin V based flow cytometric analysis (reference value: 0.40%); format: functional
CHO-K1 [12] = test: Induction of reactive oxygen species generation in CHO-K1 cells after 48 hrs by DCFH-DA staining based flow cytometeric analysis; format: cell-based, Cricetulus griseus; details: chinese hamster, cho-k1, 48 h
CHO-K1 [13] = test: Induction of apoptosis in CHO-K1 cells assessed as apoptic cells at 63 uM after 48 hrs by Annexin V based flow cytometric analysis (reference value: 6.29%); format: cell-based, Cricetulus griseus; details: chinese hamster, cho-k1, 48 h
[14] = Induction of apoptosis in CHO-K1 cells assessed as viable cells at 63 uM after 48 hrs by Annexin V based flow cytometric analysis (reference value: 93.71%); format: cell-based, Cricetulus griseus; details: chinese hamster, read-out: Activity
PC-3 [15] = test: Induction of apoptosis in human PC-3 cells assessed as apoptotic cells at 91 uM incubated for 48 hrs by AnnexinV based flow cytometric analysis (reference value: 10.43%); format: functional
PC-3 [16] = test: Induction of apoptosis in human PC-3 cells assessed as necrotic cells at 98 uM after 48 hrs by Annexin V based flow cytometric analysis (reference value: 0.79%); format: functional
PC-3 [17] = test: Induction of apoptosis in human PC-3 cells assessed as viable cells at 98 uM after 48 hrs by Annexin V based flow cytometric analysis (reference value: 89.57%); format: functional; details: read-out: Activity
CHO-K1 [18] = test: Induction of apoptosis in CHO-K1 cells assessed as late apoptic cells at 60 uM after 48 hrs by Annexin V based flow cytometric analysis (reference value: 1.01%); format: cell-based, Cricetulus griseus; details: chinese hamster, cho-k1, 48 h
CHO-K1 [19] = test: Induction of apoptosis in CHO-K1 cells assessed as apoptic cells at 60 uM after 48 hrs by Annexin V based flow cytometric analysis (reference value: 6.29%); format: cell-based, Cricetulus griseus; details: chinese hamster, cho-k1, 48 h
PC-3 [20] = test: Induction of apoptosis in human PC-3 cells assessed as early apoptic cells at 91 uM after 48 hrs by Annexin V based flow cytometric analysis (reference value: 0.40%); format: functional
CHO-K1 [21] = test: Induction of apoptosis in CHO-K1 cells assessed as late apoptic cells at 63 uM after 48 hrs by Annexin V based flow cytometric analysis (reference value: 1.01%); format: cell-based, Cricetulus griseus; details: chinese hamster, cho-k1, 48 h
PC-3 [22] = test: Induction of apoptosis in human PC-3 cells assessed as late apoptic cells at 91 uM after 48 hrs by Annexin V based flow cytometric analysis (reference value: 9.24%); format: functional
[23] = Induction of apoptosis in CHO-K1 cells assessed as viable cells at 60 uM after 48 hrs by Annexin V based flow cytometric analysis (reference value: 93.71%); format: cell-based, Cricetulus griseus; details: chinese hamster, read-out: Activity
Quadruplex DNA [24] = test: Binding affinity to Tel Q G-quadruplex DNA (unknown origin) assessed as increase in fluorescence intensity at 8.5 uM incubated for 5 mins by spectrofluorometric analysis; format: nucleic-acid assay
Quadruplex DNA [25] = test: Binding affinity to c-Myc G-quadruplex DNA (unknown origin) assessed as increase in fluorescence intensity at 10.3 uM incubated for 5 mins by spectrofluorometric analysis; format: nucleic-acid assay
Quadruplex DNA [26] = test: Binding affinity to c-Myc G-quadruplex DNA (unknown origin) assessed as hypsochromic shift at 10.3 uM incubated for 5 mins by UV- vis spectrophotometric analysis; format: nucleic-acid assay
dsDNA [27] = test: Binding affinity to double strand DNA (unknown origin) assessed as increase in fluorescence intensity at 8.5 uM incubated for 5 mins by spectrofluorometric analysis; format: nucleic-acid assay
Quadruplex DNA [28] = test: Stabilization of Tel Q G-quadruplex DNA (unknown origin) assessed as change in melting temperature at 10.3 uM incubated for 5 mins by UV-visible thermal denaturation study; format: nucleic-acid assay
Quadruplex DNA [29] = test: Binding affinity to Tel Q G-quadruplex DNA (unknown origin) assessed as hyperchromicity at 10.3 uM incubated for 5 mins by UV- vis spectrophotometric analysis; format: nucleic-acid assay
Quadruplex DNA [30] = test: Binding affinity to Tel Q G-quadruplex DNA (unknown origin) assessed as hypsochromic shift at 10.3 uM incubated for 5 mins by UV- vis spectrophotometric analysis; format: nucleic-acid assay
dsDNA [31] = test: Binding affinity to double strand DNA (unknown origin) assessed as dissociation constant incubated for 5 mins by UV- vis spectrophotometric analysis; format: nucleic-acid assay
Quadruplex DNA [32] = test: Binding affinity to c-Myc G-quadruplex DNA (unknown origin) assessed as hyperchromicity at 10.3 uM incubated for 5 mins by UV- vis spectrophotometric analysis; format: nucleic-acid assay
Quadruplex DNA [33] = test: Binding affinity to c-Myc G-quadruplex DNA (unknown origin) assessed as dissociation constant incubated for 5 mins by UV- vis spectrophotometric analysis; format: nucleic-acid assay
Quadruplex DNA [34] = test: Stabilization of c-Myc G-quadruplex DNA (unknown origin) assessed as change in melting temperature at 10.3 uM incubated for 5 mins by UV-visible thermal denaturation study; format: nucleic-acid assay
Quadruplex DNA [35] = test: Binding affinity to Tel Q G-quadruplex DNA (unknown origin) assessed as dissociation constant incubated for 5 mins by UV- vis spectrophotometric analysis; format: nucleic-acid assay
Quadruplex DNA [36] = test: Binding affinity to c-Myc G-quadruplex DNA (unknown origin) assessed as increase in fluorescence intensity at 8.5 uM incubated for 5 mins by spectrofluorometric analysis; format: nucleic-acid assay
dsDNA [37] = test: Binding affinity to double strand DNA (unknown origin) assessed as hyperchromicity at 10.3 uM incubated for 5 mins by UV- vis spectrophotometric analysis; format: nucleic-acid assay
dsDNA [38] = test: Stabilization of double strand DNA (unknown origin) assessed as change in melting temperature at 10.3 uM incubated for 5 mins by UV-visible thermal denaturation study; format: nucleic-acid assay
dsDNA [39] = test: Binding affinity to double strand DNA (unknown origin) assessed as increase in fluorescence intensity at 10.3 uM incubated for 5 mins by spectrofluorometric analysis; format: nucleic-acid assay
Quadruplex DNA [40] = test: Binding affinity to Tel Q G-quadruplex DNA (unknown origin) assessed as increase in fluorescence intensity at 10.3 uM incubated for 5 mins by spectrofluorometric analysis; format: nucleic-acid assay
dsDNA [41] = test: Binding affinity to double strand DNA (unknown origin) assessed as hypsochromic shift at 10.3 uM incubated for 5 mins by UV- vis spectrophotometric analysis; format: nucleic-acid assay

Compound: FC(F)Oc1ccc2[nH]c(SCc3cn(-c4cccc(Cl)c4Cl)nn3)nc2c1
IC50 (PC-3 [1]): 69.8 µM
IC50 (CHO-K1 [2]): 85 µM
IC50 (B16-F10): 90.5 µM

Compound: C[n+]1ccc(-c2c3nc(c(-c4cc[n+](C)cc4)c4ccc([nH]4)c(-c4cc[n+](C)cc4)c4ccc([nH]4)c(-c4cc[n+](C)cc4)c4nc2C=C4)C=C3)cc1 [TMPYP4]
viability at 91 µM (PC-3 [3]): 75.2%
Activity (CHO-K1 [4]): 1.31%
Activity (CHO-K1 [5]): 13.72%
Activity (CHO-K1 [6]): 18.87%
Activity (PC-3 [7]): 2.38%
Activity (PC-3 [8]): 33.44%
Activity (CHO-K1 [9]): 0.95%
Activity (PC-3 [10]): 48.7%
Activity (PC-3 [11]): 0.9%
Activity (CHO-K1 [12]): Non-Toxic
Activity (CHO-K1 [13]): 24.84%
viability at 48 h, 63 µM [14]: 75.2%
Activity (PC-3 [15]): 24.8%
IC50 (PC-3 [1]): 94.8 µM
Activity (PC-3 [16]): 14.36%
viability at 98 µM (PC-3 [17]): 51.3%
Activity (CHO-K1 [18]): 3.39%
IC50 (CHO-K1 [2]): 61.4 µM
Activity (CHO-K1 [19]): 18.06%
Activity (PC-3 [20]): 4.41%
Activity (CHO-K1 [21]): 4.66%
IC50 (B16-F10): 77 µM
Activity (PC-3 [22]): 18.01%
viability at 48 h, 60 µM [23]: 81.9%

Compound: O=C(Cn1cc(CSc2nc3cc(OC(F)F)ccc3[nH]2)nn1)Nc1cccc(Cl)c1
IC50 (PC-3 [1]): 136 µM
IC50 (CHO-K1 [2]): 115 µM
IC50 (B16-F10): 135 µM

Compound: Fc1ccc(-n2cc(CSc3nc4cc(OC(F)F)ccc4[nH]3)nn2)cc1F
IC50 (PC-3 [1]): 65.2 µM
IC50 (CHO-K1 [2]): 56.1 µM
IC50 (B16-F10): 56.8 µM

Compound: Cc1c(NC(=O)Cn2cc(CSc3nc4cc(OC(F)F)ccc4[nH]3)nn2)cccc1[N+](=O)[O-]
IC50 (PC-3 [1]): 66.2 µM
IC50 (CHO-K1 [2]): 62.2 µM
IC50 (B16-F10): 103 µM

Activity (Quadruplex DNA [24]): Active
Activity (Quadruplex DNA [25]): Active
Activity (Quadruplex DNA [26]): 0.6 nm
Activity (dsDNA [27]): Active
ΔTm (Quadruplex DNA [28]): 9 °C
Activity (Quadruplex DNA [29]): 31.4%
Activity (Quadruplex DNA [30]): 2.9 nm
Kd (dsDNA [31]): 191 µM
Activity (Quadruplex DNA [32]): 11.7%
Kd (Quadruplex DNA [33]): 79.2 µM
ΔTm (Quadruplex DNA [34]): -5 °C
Kd (Quadruplex DNA [35]): 87.3 µM
Activity (Quadruplex DNA [36]): Active
Activity (dsDNA [37]): 15.9%
ΔTm (dsDNA [38]): 0 °C
Activity (dsDNA [39]): Active
Activity (Quadruplex DNA [40]): Active
Activity (dsDNA [41]): 1.6 nm
Compound: O=[N+]([O-])c1ccc(-n2cc(CSc3nc4cc(OC(F)F)ccc4[nH]3)nn2)cc1
IC50 (PC-3 [1]): 59.2 µM
IC50 (CHO-K1 [2]): 100 µM
IC50 (B16-F10): 203 µM
